Legend:
Format in all cases: cell-based
hENT1 (SLC29A1) = molecular target: T1, hENT1 (SLC29A1) (Homo sapiens, UniProt Q99808); assay: Inhibition of [^3H]uridine uptake in yeast cells producing recombinant hENT1
T1 construct: expressed in transfected cells; host or cells: Saccharomyces cerevisiae
T1 sequence (Q99808 1-456): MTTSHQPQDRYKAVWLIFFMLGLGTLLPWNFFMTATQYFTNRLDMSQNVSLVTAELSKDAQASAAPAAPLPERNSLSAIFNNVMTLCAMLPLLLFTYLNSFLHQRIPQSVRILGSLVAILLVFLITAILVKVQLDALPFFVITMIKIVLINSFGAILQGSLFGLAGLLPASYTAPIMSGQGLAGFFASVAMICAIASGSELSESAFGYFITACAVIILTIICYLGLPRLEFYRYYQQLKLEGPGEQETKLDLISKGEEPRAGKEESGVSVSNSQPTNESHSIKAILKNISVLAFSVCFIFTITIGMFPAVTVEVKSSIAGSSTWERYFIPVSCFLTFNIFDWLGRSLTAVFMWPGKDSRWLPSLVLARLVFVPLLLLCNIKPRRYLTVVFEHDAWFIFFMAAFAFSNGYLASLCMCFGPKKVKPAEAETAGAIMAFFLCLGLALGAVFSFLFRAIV
Method: (§1) The interaction of 2-nitroimidazole sugars with nucleoside transporters was determined by ability of the 2-nitroimidazole sugars to inhibit [^3H]uridine uptake in yeast cells producing recombinant human nucleoside transporters and results expressed as IC50 values.
(§2) Saccharomyces cerevisiae yeast was separately transformed with plasmids (pYPhENT1, pYPhENT2, pYPhCNT1, pYPhCNT2, or pYPhCNT3) encoding hNTs (hENT1, hENT2, hCNT1, hCNT2, or hCNT3, respectively) as described elsewhere. Uptake of 1 µmol/L [^3H]uridine (Moravek Biochemicals) into yeast was measured as previously described using a semi-automated cell harvester (Micro96 HARVESTER; Skatron Instruments, Tranby, Norway). Yeast was incubated at room temperature with 1 µmol/L [^3H]uridine in yeast growth media (pH 7.4) in the presence or absence (uninhibited controls) of graded concentrations (0–3 mM) of test compounds. The following compounds were used for transporter experiments: FAZA, β-FAZA, α-FAZDR, β-FAZDR. Uridine self-inhibition was used to determine maximum inhibition of mediated transport. Concentration–effect curves were subjected to nonlinear regression analysis using Prism software (version 4.03; GraphPad Software Inc.) to obtain the concentration of test compound that inhibited uridine uptake by 50%, relative to that of untreated cells (IC50 values). Each IC50 value determination was conducted with nine concentrations and four replicates per concentration and experiments were repeated two to three times.

hENT2 (SLC29A2) = molecular target: T2, hENT2 (SLC29A2) (Homo sapiens, UniProt Q14542); assay: Inhibition of [^3H]uridine uptake in yeast cells producing recombinant hENT2
T2 construct: expressed in transfected cells; host or cells: Saccharomyces cerevisiae
T2 sequence (Q14542 1-456): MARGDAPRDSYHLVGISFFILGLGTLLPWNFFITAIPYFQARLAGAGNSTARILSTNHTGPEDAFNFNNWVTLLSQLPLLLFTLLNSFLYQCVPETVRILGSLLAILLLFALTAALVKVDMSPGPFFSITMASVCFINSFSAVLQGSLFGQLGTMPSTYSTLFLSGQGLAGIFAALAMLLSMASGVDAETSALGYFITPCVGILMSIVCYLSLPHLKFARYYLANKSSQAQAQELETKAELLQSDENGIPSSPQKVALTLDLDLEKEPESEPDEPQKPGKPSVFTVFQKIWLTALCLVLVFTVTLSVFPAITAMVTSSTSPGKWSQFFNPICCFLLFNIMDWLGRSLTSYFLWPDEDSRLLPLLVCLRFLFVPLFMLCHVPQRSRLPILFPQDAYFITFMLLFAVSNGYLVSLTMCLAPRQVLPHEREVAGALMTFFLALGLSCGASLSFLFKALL
Method: as §1, §2

hCNT1 (SLC28A1) = molecular target: T3, hCNT1 (SLC28A1) (Homo sapiens, UniProt O00337); assay: Inhibition of [^3H]uridine uptake in yeast cells producing recombinant hCNT1
T3 construct: expressed in transfected cells; host or cells: Saccharomyces cerevisiae
T3 sequence (O00337 1-649): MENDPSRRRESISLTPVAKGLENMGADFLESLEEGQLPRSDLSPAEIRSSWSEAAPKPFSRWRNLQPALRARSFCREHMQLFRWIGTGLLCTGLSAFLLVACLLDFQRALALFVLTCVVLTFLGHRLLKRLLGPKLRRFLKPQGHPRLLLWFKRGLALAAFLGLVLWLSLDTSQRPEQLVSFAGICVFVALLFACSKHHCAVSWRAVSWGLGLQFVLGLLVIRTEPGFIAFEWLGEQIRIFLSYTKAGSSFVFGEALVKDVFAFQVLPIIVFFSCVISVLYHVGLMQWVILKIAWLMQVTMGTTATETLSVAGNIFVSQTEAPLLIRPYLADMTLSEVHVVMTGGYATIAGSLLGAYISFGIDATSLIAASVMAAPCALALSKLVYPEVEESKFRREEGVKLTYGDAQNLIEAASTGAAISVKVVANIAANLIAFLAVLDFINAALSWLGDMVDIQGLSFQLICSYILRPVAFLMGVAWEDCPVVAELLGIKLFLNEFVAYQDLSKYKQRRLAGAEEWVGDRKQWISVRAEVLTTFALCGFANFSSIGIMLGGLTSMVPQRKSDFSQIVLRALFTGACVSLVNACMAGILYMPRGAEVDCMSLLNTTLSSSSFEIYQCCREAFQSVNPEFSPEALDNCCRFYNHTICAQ
Method: as §1, §2

hCNT2 (SLC28A2) = molecular target: T4, hCNT2 (SLC28A2) (Homo sapiens, UniProt O43868); assay: Inhibition of [^3H]uridine uptake in yeast cells producing recombinant hCNT2
T4 construct: expressed in transfected cells; host or cells: Saccharomyces cerevisiae
T4 sequence (O43868 1-658): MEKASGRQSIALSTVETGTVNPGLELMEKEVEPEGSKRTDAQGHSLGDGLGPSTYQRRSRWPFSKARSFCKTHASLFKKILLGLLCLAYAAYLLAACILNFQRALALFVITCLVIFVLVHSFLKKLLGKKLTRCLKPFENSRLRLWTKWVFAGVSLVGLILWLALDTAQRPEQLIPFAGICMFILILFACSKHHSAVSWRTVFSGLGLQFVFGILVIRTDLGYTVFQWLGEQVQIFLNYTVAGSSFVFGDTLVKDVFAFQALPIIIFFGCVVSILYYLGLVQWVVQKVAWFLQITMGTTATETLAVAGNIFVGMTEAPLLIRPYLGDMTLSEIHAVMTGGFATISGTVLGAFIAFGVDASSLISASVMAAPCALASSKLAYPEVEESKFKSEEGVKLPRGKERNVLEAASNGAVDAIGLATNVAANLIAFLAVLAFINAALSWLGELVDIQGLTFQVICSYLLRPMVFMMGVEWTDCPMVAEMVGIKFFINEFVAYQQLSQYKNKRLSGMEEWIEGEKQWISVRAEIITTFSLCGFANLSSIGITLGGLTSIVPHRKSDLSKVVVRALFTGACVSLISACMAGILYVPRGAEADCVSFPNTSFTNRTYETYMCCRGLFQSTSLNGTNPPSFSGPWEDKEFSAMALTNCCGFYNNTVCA
Method: as §1, §2

hCNT3 (SLC28A3) = molecular target: T5, hCNT3 (SLC28A3) (Homo sapiens, UniProt Q9HAS3); assay: Inhibition of [^3H]uridine uptake in yeast cells producing recombinant hCNT3
T5 construct: expressed in transfected cells; host or cells: Saccharomyces cerevisiae
T5 sequence (Q9HAS3 1-691): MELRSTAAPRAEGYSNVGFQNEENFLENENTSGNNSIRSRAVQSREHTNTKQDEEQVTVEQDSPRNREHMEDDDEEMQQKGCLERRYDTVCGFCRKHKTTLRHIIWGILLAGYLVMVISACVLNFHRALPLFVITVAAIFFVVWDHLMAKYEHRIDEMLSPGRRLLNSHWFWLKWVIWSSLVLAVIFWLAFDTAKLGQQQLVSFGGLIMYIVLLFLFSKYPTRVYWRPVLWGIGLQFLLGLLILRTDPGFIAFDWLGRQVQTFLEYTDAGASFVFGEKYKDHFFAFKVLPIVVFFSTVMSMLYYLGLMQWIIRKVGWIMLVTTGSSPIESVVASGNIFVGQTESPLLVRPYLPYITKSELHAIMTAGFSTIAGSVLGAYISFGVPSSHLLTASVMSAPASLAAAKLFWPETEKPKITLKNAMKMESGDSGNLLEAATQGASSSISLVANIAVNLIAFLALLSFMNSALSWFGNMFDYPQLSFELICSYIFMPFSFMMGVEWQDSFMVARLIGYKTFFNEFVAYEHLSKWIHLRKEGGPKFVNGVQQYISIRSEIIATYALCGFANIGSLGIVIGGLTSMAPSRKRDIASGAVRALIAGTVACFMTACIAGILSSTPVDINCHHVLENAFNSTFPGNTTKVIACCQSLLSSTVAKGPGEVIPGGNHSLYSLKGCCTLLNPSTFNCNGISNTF
Method: as §1, §2

IC50 (hENT1 (SLC29A1)): 2.07 ± 0.05 mM | IC50 (hENT2 (SLC29A2)): > 3 mM | IC50 (hCNT1 (SLC28A1)): > 3 mM | IC50 (hCNT2 (SLC28A2)): > 3 mM | IC50 (hCNT3 (SLC28A3)): 2.31 ± 0.352 mM
Structure (SMILES): O=[N+]([O-])c1nccn1[C@@H]1O[C@H](CF)[C@@H](O)[C@@H]1O [β-FAZA, 1-(5′-Deoxy-5′-fluoro-β-D-arabinofuranosyl)-2-nitroimidazole]

Reference: publication PMC6469291, “2-Nitroimidazole-Furanoside Derivatives for Hypoxia Imaging—Investigation of Nucleoside Transporter Interaction, ^18F-Labeling and Preclinical PET Imaging” (Pharmaceuticals, 2019)
